Experimental data published in patent US11147748B2, “Composition of temporary crown materials” (National Taipei University of Technology, priority 2019, dated 2021).
“Also recorded” adds a separate entry of the source. Where a name gives a salt, the structure may show the parent alone.

What was measured:
[1] = test system: fibroblasts (L929); experiment: cytotoxicity test (MTT) with extract of the cured temporary crown material; format: cell-based; settings: L929 co-cultured with material extract (0.2 g/ml) for 24 hours and 72 hours; plasticizer in crown material; FIG. 3
Description: First, 2 grams (g) of the mixture of the powder reagent and the liquid reagent were taken to be cured and then immersed in 10 ml of MEM culture medium at a temperature of 37° C. for 24 hours. Afterwards, an extract of the mixture was taken, in which the extraction ratio was 0.2 g/ml.
Further, fibroblasts (L929) were seeded in the 96-well plates and incubated for 1 day.
Afterwards, the cell culture media were removed, and then a material extract containing 10% fetal bovine serum (FBS) after filtration and a culture medium without the material extract as the control were added, respectively, and then incubated for 24-72 hours. Subsequently, the culture media were removed again, and then phosphate buffered saline (PBS) washes were performed, followed by PBS removal. The serum-free culture medium was formulated as a reaction reagent of MTT ((3-(4,5-dimethylthiazol-2-yl)-2,5-diphenyltetrazolium bromide)), and the ratio of the culture medium to the MTT solution was 1 mg/ml. Each well plate was added with 50 μl of MTT reagent and then placed in the incubator. After 2 hours, the MTT reagent was removed, and 100 μl of antifreezing agent (DMSO) was added. The 96-well plate was shaken for 30 minutes using a rotary shaker. After the reaction was completed, the absorbance at a wavelength of 570 nm was measured by an ELISA reader. […]

[2] = three-point bending test (flexural strength, toughness) of the temporary crown material; format: physicochemical; settings: for toughness (in words): FIG. 5
Description: First, the temporary crown material was filled into a stainless steel mold (a length of 25 millimeters (mm), a width of 2 mm and a height of 2 mm). After the temporary crown was completely cured, the crown was immersed in ultrapure water and placed in an oven at 37° C. for 24 hours. […] The flexural strength was calculated by the following formula: […]
wherein F was the force (N) under the maximum load; b was the average width (mm) of the test piece; h was the average thickness (mm) of the test piece; and l was the pitch (mm) between the two lower fulcrums.
In addition, the toughness of the temporary crown is the integral area under the stress-strain curve, in which stress is put on Y-axis and strain is put on X-axis. The unit of the toughness is […]

[3] = surface hardness test of temporary crowns (micro hardness tester); format: physicochemical; settings: plasticizer added to temporary crown; load 4.903 N for 10 seconds; FIG. 6
Description: First, the temporary crown material was filled into a stainless steel mold (a diameter of 15 mm and a thickness of 1 mm). After the temporary crown was completely cured, the sample was immersed in ultrapure water and placed in an oven at 37° C. After 24 hours, the sample to be tested was taken out and placed in a micro hardness tester (HMV-2 series), and the load applied to the sample by the diamond indenter was 4.903 N for 10 seconds. Finally, the average length of the diagonal indentation on the surface of the sample was measured to calculate the surface hardness of the temporary crown. The calculation formula was: […]
wherein d is the length of the indentation, F is the load, and g is the gravity constant.

[4] = plasticizer added to temporary crown
[5] = temporary crown with 2% plasticizer
[6] = temporary crown with 5% plasticizer
[7] = temporary crown with 10% plasticizer
[8] = temporary crown with 15% plasticizer

Compound	Elongation at break [2, 5] [%]	Flexural modulus [2, 5] [MPa]	Maximum stress [2, 5] [MPa]	Strain [2, 5] [%]	Toughness [2, 5] [MPa]	Elongation at break [2, 6] [%]	Flexural modulus [2, 6] [MPa]	Maximum stress [2, 6] [MPa]	Strain [2, 6] [%]	Toughness [2, 6] [MPa]	Elongation at break [2, 7] [%]	Flexural modulus [2, 7] [MPa]	Maximum stress [2, 7] [MPa]	Strain [2, 7] [%]	Toughness [2, 7] [MPa]	Elongation at break [2, 8] [%]	Flexural modulus [2, 8] [MPa]	Maximum stress [2, 8] [MPa]	Strain [2, 8] [%]	Toughness [2, 8] [MPa]	further results
CCCCOC(=O)CC(CC(=O)OCCCC)(OC(C)=O)C(=O)OCCCC [ATBC, acetyl tributyl citrate]	7.94	2463.34	85.24	7.72	59.89	8.24	2362.61	81.98	7.82	57.21	6.50	2138.92	70.29	6.48	28.07	5.70	1897.78	55.59	5.71	17.39	cytotoxicity / cell survival rate [1]: less than that of adding plasticizers DBP and TEC; also recorded: less toxicity to cells; flexural strength (in words) ([2]; plasticizer added to temporary crown, FIG. 4): can increase the flexural strength; toughness (in words) [2, 4]: can increase the toughness
CCCCOC(=O)c1ccccc1C(=O)OCCCC [DBP, dibutyl phthalate, reference compound]	10.86	1215.08	66.56	10.75	28.74	11.43	1199.73	62.75	10.75	31.14	9.56	1083.70	54.11	9.75	18.94	9.68	997.11	46.25	9.50	17.35	surface hardness (in words) [3]: contributes to the increase of surface hardness
CCOC(=O)CC(O)(CC(=O)OCC)C(=O)OCC [TEC, triethyl citrate]	10.43	2173.29	80.70	8.94	77.26	13.14	2308.16	83.40	9.20	115.80	7.10	2029.32	69.93	7.09	30.88	5.34	1790.09	46.31	5.36	11.98	cytotoxicity / cell survival rate [1]: not significantly improved; toughness (in words) [2, 4]: can increase the toughness
